Test results: patent US20250092043A1, “Kinase Inhibitors and Degraders” (Incyte Corporation, priority 2023, published 2025)

Target: T1, JAK2 (Homo sapiens, UniProt O60674, V617F)
T1 construct: their effect on JAK2 protein degradation in SET2 cells; host or cells: SET2 cells (human essential thrombocythemia)
Assay: Western blot quantitation of JAK2 degradation in SET2 cells
Type: cell-based
Details: 0.5 μM compound (cells marked **), 8 hours treatment, western blot densitometry vs. DMSO vehicle
Outline: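 SET2 cells (JAK2 V617F, ~82% mutant) treated 8 h at 37° C with 0.5–10 uM compound, ±20 uM MG-132 at top dose. JAK2 measured by western blot densitometry relative to DMSO and graded into degradation bins (A–E).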

T1 sequence (O60674 whole entry V617F): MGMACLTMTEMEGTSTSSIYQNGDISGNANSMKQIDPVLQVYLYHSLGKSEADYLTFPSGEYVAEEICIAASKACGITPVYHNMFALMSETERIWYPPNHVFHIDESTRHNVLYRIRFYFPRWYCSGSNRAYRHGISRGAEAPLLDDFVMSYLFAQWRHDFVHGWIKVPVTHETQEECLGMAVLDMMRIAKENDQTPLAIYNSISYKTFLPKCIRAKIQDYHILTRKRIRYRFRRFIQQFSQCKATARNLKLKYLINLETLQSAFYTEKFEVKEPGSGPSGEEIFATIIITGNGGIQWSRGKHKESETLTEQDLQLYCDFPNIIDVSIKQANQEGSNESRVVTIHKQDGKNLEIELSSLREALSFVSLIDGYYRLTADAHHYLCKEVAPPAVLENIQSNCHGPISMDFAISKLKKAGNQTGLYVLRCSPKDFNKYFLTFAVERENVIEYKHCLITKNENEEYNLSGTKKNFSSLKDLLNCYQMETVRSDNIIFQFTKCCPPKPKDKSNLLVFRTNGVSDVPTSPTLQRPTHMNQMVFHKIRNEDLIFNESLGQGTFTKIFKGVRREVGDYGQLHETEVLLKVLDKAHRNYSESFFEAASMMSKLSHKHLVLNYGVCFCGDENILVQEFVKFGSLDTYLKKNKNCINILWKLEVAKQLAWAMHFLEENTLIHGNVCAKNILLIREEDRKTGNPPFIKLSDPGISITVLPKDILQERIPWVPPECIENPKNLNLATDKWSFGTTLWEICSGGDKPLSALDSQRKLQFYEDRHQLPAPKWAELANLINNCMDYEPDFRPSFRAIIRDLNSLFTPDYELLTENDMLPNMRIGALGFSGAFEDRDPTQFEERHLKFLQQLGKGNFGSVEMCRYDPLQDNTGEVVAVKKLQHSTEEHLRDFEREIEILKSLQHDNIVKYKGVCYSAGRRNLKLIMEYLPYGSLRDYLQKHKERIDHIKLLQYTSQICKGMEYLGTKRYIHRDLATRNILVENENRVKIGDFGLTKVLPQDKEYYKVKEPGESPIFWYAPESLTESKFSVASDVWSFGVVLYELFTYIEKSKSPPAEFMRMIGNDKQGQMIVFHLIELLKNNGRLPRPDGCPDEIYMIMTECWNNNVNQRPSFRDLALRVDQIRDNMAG

JAK2 % Degradation in SET2 | SMILES
A** (A: ≥600% degradation) | COC(=O)N[C@@H]1CC[C@@H](n2c(=O)n(C)c3cnc4[nH]c(-c5ccc(C(=O)N6CCC(CN7CCN(c8ccc9c(c8)C(=O)N(C8CCC(=O)NC8=O)C9=O)CC7)CC6)cc5)c(-c5ccc6c(cnn6C(C)C)c5)c4c32)C1 (stereo partly drawn) [Example 34, methyl ((1R,3R)-3-(7-(4-(4-((4-(2-(2,6-dioxopiperidin-3-yl)-1,3-dioxoisoindolin-5-yl)piperazin-1-yl)methyl)piperidine-1-carbonyl)phenyl)-8-(1-isopropyl-1H-indazol-5-yl)-3-methyl-2-oxo-3,6-dihydroimidazo[4,5-d]pyrrolo[2,3-b]pyridin-1(2H)-yl)cyclopentyl) carbamate]

Same assay, conditions: 5 μM compound, 8 hours treatment, western blot densitometry vs. DMSO vehicle

SMILES | JAK2 % Degradation in SET2
COC(=O)N[C@@H]1CC[C@@H](n2c(=O)n(C)c3cnc4[nH]c(-c5cnn(CC(=O)N6CCC(CN7CCN(c8cccc9c8C(=O)N(C8CCC(=O)NC8=O)C9=O)CC7)CC6)c5)c(-c5ccc6c(cnn6C(C)C)c5)c4c32)C1 (stereo partly drawn) [Example 40, methyl ((1R,3R)-3-(7-(1-(2-(4-((4-(2-(2,6-dioxopiperidin-3-yl)-1,3-dioxoisoindolin-4-yl)piperazin-1-yl)methyl)piperidin-1-yl)-2-oxoethyl)-1H-pyrazol-4-yl)-8-(1-isopropyl-1H-indazol-5-yl)-3-methyl-2-oxo-3,6-dihydroimidazo[4,5-d]pyrrolo[2,3-b]pyridin-1(2H)-yl)cyclopentyl) carbamate] | C (C: ≥20% to <40% degradation)
COC(=O)N[C@@H]1CC[C@@H](n2c(=O)n(C)c3cnc4[nH]c(-c5ccc(C(=O)N6CCN(c7ccc8c(c7)C(=O)N(C7CCC(=O)NC7=O)C8=O)CC6)cc5)c(-c5ccc6c(cnn6C(C)C)c5)c4c32)C1 (stereo partly drawn) [Example 62, Methyl((1R,3R)-3-(7-(4-(4-(2-(2,6-dioxopiperidin-3-yl)-1,3-dioxoisoindolin-5-yl)piperazine-1-carbonyl)phenyl)-8-(1-isopropyl-1H-indazol-5-yl)-3-methyl-2-oxo-3,6-dihydroimidazo[4,5-d]pyrrolo[2,3-b]pyridin-1(2H)-yl)cyclopentyl)carbamate] | E (E<10%)

More lines, now with the values ahead:

JAK2 % Degradation in SET2 | SMILES
C (C: ≥20% to <40% degradation) | COC(=O)N[C@@H]1CC[C@@H](n2c(=O)n(C)c3cnc4[nH]c(-c5ccc(C(=O)N6CCC(CN7CCN(c8cccc9c8C(=O)N(C8CCC(=O)NC8=O)C9)CC7)CC6)cc5)c(-c5ccc6c(cnn6C(C)C)c5)c4c32)C1 (stereo partly drawn) [Example 63, Methyl((1R,3R)-3-(7-(4-(4-((4-(2-(2,6-dioxopiperidin-3-yl)-3-oxoisoindolin-4-yl)piperazin-1-yl)methyl)piperidine-1-carbonyl)phenyl)-8-(1-isopropyl-1H-indazol-5-yl)-3-methyl-2-oxo-3,6-dihydroimidazo[4,5-d]pyrrolo[2,3-b]pyridin-1(2H)-yl)cyclopentyl)carbamate]
A (A: ≥600% degradation) | COC(=O)N[C@@H]1CC[C@@H](n2c(=O)n(C)c3cnc4[nH]c(-c5ccc(CN6CCC(CN7CCN(c8ccc9c(c8)CN(C8CCC(=O)NC8=O)C9=O)CC7)CC6)cc5)c(-c5ccc6c(cnn6C(C)C)c5)c4c32)C1 (stereo partly drawn) [Example 43, Methyl((1R,3R)-3-(7-(4-((4-((4-(2-(2,6-dioxopiperidin-3-yl)-1-oxoisoindolin-5-yl)piperazin-1-yl)methyl)piperidin-1-yl)methyl)phenyl)-8-(1-isopropyl-1H-indazol-5-yl)-3-methyl-2-oxo-3,6-dihydroimidazo[4,5-d]pyrrolo[2,3-b]pyridin-1(2H)-yl)cyclopentyl)carbamate]

Same assay, conditions: 10 μM compound, 8 hours treatment, western blot densitometry vs. DMSO vehicle

JAK2 % Degradation in SET2 | SMILES
C (C: ≥20% to <40% degradation) | CN[C@@H](C)C(=O)N[C@H](C(=O)N1C[C@@H](NC(=O)[C@H]2CC[C@H](CNC(=O)c3ccc(-c4[nH]c5ncc6c(c5c4-c4ccc5c(cnn5C(C)C)c4)n([C@@H]4CC[C@@H](NC(=O)OC)C4)c(=O)n6C)cc3F)CC2)C[C@H]1C(=O)N[C@@H]1CCCc2ccccc21)C1CCCCC1 [Example 47, Methyl((1R,3R)-3-(7-(4-((((trans)-4-(((3S,5S)-1-((S)-2-cyclohexyl-2-((S)-2-(methylamino)propanamido)acetyl)-5-(((R)-1,2,3,4-tetrahydronaphthalen-1-yl)carbamoyl)pyrrolidin-3-yl)carbamoyl)cyclohexyl)methyl)carbamoyl)-3-fluorophenyl)-8-(1-isopropyl-1H-indazol-5-yl)-3-methyl-2-oxo-3,6-dihydroimidazo[4,5-d]pyrrolo[2,3-b]pyridin-1(2H)-yl)cyclopentyl)carbamate]
B (B: ≥40% to <60% degradation) | COC(=O)N[C@@H]1CC[C@@H](n2c(=O)n(C)c3cnc4[nH]c(-c5ccc(C(=O)N6CCC(CN7CCN(c8cccc9c8C(=O)N(C8CCC(=O)NC8=O)C9=O)CC7)CC6)c(OC)c5)c(-c5ccc6c(cnn6C(C)C)c5)c4c32)C1 (stereo partly drawn) [Example 28, methyl ((1R,3R)-3-(7-(4-(4-((4-(2-(2,6-dioxopiperidin-3-yl)-1,3-dioxoisoindolin-4-yl)piperazin-1-yl)methyl)piperidine-1-carbonyl)-3-methoxyphenyl)-8-(1-isopropyl-1H-indazol-5-yl)-3-methyl-2-oxo-3,6-dihydroimidazo[4,5-d]pyrrolo[2,3-b]pyridin-1(2H)-yl)cyclopentyl) carbamate]
C (C: ≥20% to <40% degradation) | COC(=O)N[C@@H]1CC[C@@H](n2c(=O)n(C)c3cnc4[nH]c(-c5ccc(C(=O)N6CCC(CC(=O)Nc7ccc8c(c7)CN(C7CCC(=O)NC7=O)C8=O)CC6)c(F)c5)c(-c5ccc6c(cnn6C(C)C)c5)c4c32)C1 (stereo partly drawn) [Example 53, Methyl((1R,3R)-3-(7-(4-(4-(2-((2-(2,6-dioxopiperidin-3-yl)-1-oxoisoindolin-5-yl)amino)-2-oxoethyl)piperidine-1-carbonyl)-3-fluorophenyl)-8-(1-isopropyl-1H-indazol-5-yl)-3-methyl-2-oxo-3,6-dihydroimidazo[4,5-d]pyrrolo[2,3-b]pyridin-1(2H)-yl)cyclopentyl)carbamate]
A (A: ≥600% degradation) | COC(=O)N[C@@H]1CC[C@@H](n2c(=O)n(C)c3cnc4[nH]c(-c5ccc(C(=O)N6CCC(CN7CCN(c8cccc9c8C(=O)N(C8CCC(=O)NC8=O)C9=O)CC7)CC6)cc5)c(-c5ccc6c(cnn6C(C)C)c5)c4c32)C1 (stereo partly drawn) [Example 33, methyl ((1R,3R)-3-(7-(4-(4-((4-(2-(2,6-dioxopiperidin-3-yl)-1,3-dioxoisoindolin-4-yl)piperazin-1-yl)methyl)piperidine-1-carbonyl)phenyl)-8-(1-isopropyl-1H-indazol-5-yl)-3-methyl-2-oxo-3,6-dihydroimidazo[4,5-d]pyrrolo[2,3-b]pyridin-1(2H)-yl)cyclopentyl) carbamate]
A (A: ≥600% degradation) | COC(=O)N[C@@H]1CC[C@@H](n2c(=O)n(C)c3cnc4[nH]c(-c5ccc(C(=O)N6CCC(CN7CCN(c8ccc9c(c8)CN(C8CCC(=O)NC8=O)C9=O)CC7)CC6)c(F)c5)c(-c5ccc6c(cnn6C(C)C)c5)c4c32)C1 (stereo partly drawn) [Example 36, methyl ((1R,3R)-3-(7-(4-(4-((4-(2-(2,6-dioxopiperidin-3-yl)-1-oxoisoindolin-5-yl)piperazin-1-yl)methyl)piperidine-1-carbonyl)-3-fluorophenyl)-8-(1-isopropyl-1H-indazol-5-yl)-3-methyl-2-oxo-3,6-dihydroimidazo[4,5-d]pyrrolo[2,3-b]pyridin-1(2H)-yl)cyclopentyl) carbamate]
